{"source": "patent US7582417B2", "about": "“Sequential reporter enzyme luminescence (SRL) methods and compositions for practicing the same” (The Board of Trustees of the Leland Stanford Junior …, priority 2006, dated 2009)", "key": {"[1]": {"target": "T1, mouse angiotensin receptor 1 (AGTR1) (Mus musculus, UniProt P29754)", "T1 construct": "expressed in transfected cells; host or cells: C2C12 myoblasts, retrovirally transduced", "T1 sequence (P29754 whole entry)": "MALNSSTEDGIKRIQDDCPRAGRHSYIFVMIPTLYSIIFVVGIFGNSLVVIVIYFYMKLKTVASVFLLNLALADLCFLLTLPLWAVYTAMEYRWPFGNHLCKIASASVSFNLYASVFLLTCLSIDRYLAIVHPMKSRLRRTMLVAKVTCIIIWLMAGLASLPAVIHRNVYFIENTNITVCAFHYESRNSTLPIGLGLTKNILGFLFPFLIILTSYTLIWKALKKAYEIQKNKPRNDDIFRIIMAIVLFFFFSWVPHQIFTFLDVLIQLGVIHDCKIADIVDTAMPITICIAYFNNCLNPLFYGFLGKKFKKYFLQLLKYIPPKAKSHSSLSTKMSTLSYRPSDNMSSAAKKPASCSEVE", "T1 sequence (P32121 whole entry partner)": "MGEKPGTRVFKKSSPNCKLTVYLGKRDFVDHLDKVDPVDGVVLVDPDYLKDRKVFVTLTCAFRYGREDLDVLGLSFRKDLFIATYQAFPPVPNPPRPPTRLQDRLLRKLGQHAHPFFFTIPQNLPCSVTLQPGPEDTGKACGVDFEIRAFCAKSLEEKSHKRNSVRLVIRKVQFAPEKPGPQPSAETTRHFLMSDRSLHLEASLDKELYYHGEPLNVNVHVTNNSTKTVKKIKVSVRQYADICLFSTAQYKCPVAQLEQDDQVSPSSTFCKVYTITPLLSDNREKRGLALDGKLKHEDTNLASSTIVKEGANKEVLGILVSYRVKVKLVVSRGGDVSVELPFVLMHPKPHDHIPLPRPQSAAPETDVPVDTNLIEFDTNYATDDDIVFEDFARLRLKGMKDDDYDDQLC", "test": "GPCR/arrestin β-gal complementation assay, AGTR1 cell line", "format": "cell-based", "quoted_text": "Cells expressing the GPCR-α* and β-arrestin2-ω fusions were seeded at 20,000 cells/well in a 96-well dish overnight. Ligand was added for 1 hour. Media is aspirated and 50 ul of lysis solution (buffer A) and substrate (Gal-screen) in a 25:1 ratio was added to each well. The plates were incubated for 60-90 min at room temperature before reading in a TR717 luminometer with an integration time of 1 second. EC50 values were calculated using non-linear regression with a variable slope sigmoidal dose response algorithm in Prism software (Graphpad).\nTo test the sensitivity of the GPCR/arrestin assay, each cell line was plated in a 96-well dish and treated for 60 minutes with escalating doses of the indicated agonist (FIG. 9B). β-gal activity was measured using a luminescent substrate (Tropix)."}, "[2]": {"conditions": "published value; cited from earlier work"}, "[3]": {"target": "T2, β-gal activity of implanted FLuc/LacZ cells (Escherichia coli, UniProt P00722)", "T2 sequence (P00722 whole entry)": "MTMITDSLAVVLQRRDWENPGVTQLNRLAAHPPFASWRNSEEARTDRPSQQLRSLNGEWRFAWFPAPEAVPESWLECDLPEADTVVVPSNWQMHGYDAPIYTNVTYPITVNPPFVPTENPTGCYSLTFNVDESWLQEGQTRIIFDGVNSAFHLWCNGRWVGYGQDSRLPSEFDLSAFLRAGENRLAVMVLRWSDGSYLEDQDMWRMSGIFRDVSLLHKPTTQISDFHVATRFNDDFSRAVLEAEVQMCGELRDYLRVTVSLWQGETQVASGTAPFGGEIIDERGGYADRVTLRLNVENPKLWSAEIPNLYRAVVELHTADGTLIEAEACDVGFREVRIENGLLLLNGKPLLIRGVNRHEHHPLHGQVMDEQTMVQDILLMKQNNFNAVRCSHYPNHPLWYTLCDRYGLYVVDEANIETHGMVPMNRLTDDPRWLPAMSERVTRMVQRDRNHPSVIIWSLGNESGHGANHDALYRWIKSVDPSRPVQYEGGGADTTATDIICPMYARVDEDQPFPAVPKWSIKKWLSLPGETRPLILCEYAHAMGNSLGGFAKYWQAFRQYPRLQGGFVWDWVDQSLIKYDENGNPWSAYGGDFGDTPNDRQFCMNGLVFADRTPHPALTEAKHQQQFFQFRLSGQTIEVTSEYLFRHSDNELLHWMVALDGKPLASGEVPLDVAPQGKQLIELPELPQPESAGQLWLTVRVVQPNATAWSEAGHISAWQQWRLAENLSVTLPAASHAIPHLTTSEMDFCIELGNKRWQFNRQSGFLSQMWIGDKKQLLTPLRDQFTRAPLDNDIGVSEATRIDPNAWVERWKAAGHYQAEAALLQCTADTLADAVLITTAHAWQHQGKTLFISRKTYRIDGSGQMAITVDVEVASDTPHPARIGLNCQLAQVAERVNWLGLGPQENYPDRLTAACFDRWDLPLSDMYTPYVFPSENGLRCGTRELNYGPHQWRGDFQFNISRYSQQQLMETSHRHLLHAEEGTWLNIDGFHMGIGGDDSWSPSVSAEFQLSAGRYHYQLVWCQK", "test": "Near-infrared fluorescent imaging of β-gal activity with DDAOG", "format": "in vivo, mouse", "parameters": "expressed in transfected cells; host or cells: C2C12 mouse myoblasts, retrovirally transduced (FLuc/LacZ cells)", "conditions": "1×10^6 cells, right vs left leg", "procedure": "The near-infrared imaging probe DDAOG (Molecular Probes) was injected intravenously (0.5 mg of DDAOG in 100 μl of DMSO and PBS (1:1)). NIRF reflectance imaging was performed using an IVIS-200 imager (Xenogen) with a custom filter set (excitation: 615-645; emission: 680-720 nm) (Omega Optical). Images were continuously acquired over 45 min after substrate injection and the images showing optimal signal-to-noise ratios were chosen for comparison."}, "[4]": {"target": "β-gal activity in FLuc/LacZ C2C12 cells (Escherichia coli, UniProt P00722)", "sequence (P00722 whole entry)": "as above", "procedure": "The parental MFG-IRES-lyt-2 construct was used to generate the lyt-2 expressing myoblasts. Retroviral transduction was performed using the ecotropic ΦNX packaging cell line (generous gift of GP Nolan). This line was transiently transfected with the proviral constructs using Fugene transfection reagent (Boehringer Mannheim). […] Polybrene was added to a final concentration of 8 μg/ml (Sigma) and cells were spun at 2,000 RPM in a Beckman GS-6 centrifuge. Cells transduced with the Luciferase-IRES-lyt-2 construct or the parental MFG-IRES-lyt-2 construct were stained with an anti-lyt-2 antibody conjugated to APC (BD Pharmingen). Cells were sorted by FACS on a Becton Dickinson flow cytometer with MoFlo electronics. […] For the in vitro cell studies, C2C12 cells were seeded in growth medium into a 384-well dish. […] The plate was read on a Tropix TR717 luminometer at room temperature with an integration time of 1 s/well. […] Cell lysates were prepared by aspirating the media and adding 15 ul of lysis buffer (1% Triton-X100, 50 mM Tris-HCl, 10 mM MgCl2, 10 mM DTT, 1 mM ATP, pH 7.5). For wells with intact cells, 15 ul of PBS was substituted for lysis buffer. The substrates were added at equivalent volumes to bring the reaction volume to 30 ul."}, "[5]": {"target": "T2, β-gal activity of implanted FLuc/LacZ cells", "procedure": "Imaging was performed using a Xenogen-100 device as previously described (Cao et al., supra). Briefly, the system is comprised of a light-tight imaging chamber, a cooled digital CCD camera with a cryogenic refrigeration unit and the appropriate computer system (Living Image™ 2.50 software, Xenogen, Alameda). […] C2C12 myoblasts were harvested and suspended in 0.5% BSA in PBS at a final concentration of 10^8 cells/ml for injection. For experiment shown in FIG. 1e, 10^6 cells expressing LacZ and FLuc (FLuc/LacZ cells) were injected into the right tibialis anterior muscle (TA) and 10^6 cells expressing FLuc only (FLuc cells) into the left TA of BALB/c nude mice. […] For experiment shown in FIGS. 2a and 2b, a range of cell numbers between 5×10^4 and 2×10^6 were injected subcutaneously in 10 different locations of the back of BALB/c nude mice."}, "[6]": {"target": "T3, somatostatin 2 receptor (SSTR2) (Homo sapiens, UniProt P30874)", "T3 construct": "expressed in transfected cells; host or cells: C2C12 myoblasts, retrovirally transduced; the in vivo cells also carry Ras and FLuc", "T3 sequence (P30874 whole entry)": "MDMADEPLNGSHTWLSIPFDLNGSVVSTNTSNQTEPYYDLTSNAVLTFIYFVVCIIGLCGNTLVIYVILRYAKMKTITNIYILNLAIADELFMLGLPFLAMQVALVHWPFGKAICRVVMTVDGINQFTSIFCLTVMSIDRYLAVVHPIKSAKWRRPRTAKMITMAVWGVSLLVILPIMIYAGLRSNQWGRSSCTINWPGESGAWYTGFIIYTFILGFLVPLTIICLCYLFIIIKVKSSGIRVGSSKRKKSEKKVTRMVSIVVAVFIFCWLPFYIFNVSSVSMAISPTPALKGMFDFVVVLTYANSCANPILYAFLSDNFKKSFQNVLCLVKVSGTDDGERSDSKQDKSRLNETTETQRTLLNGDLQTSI", "T3 sequence (P32121 whole entry partner)": "as the sequence (P32121 whole entry partner) above", "test": "In vivo luminescent imaging of somatostatin 2 receptor activation (SSTR2/Fluc cells in BALB/c nude mice, Lugal)", "conditions": "after octreotide i.p.", "source_text": "All protocols were approved by the Administrative Panel on Laboratory Animal Care at Stanford University School of Medicine. BALB/c nude were obtained from the Stanford University in-house colony. C2C12 myoblasts were harvested and suspended in 0.5% BSA in PBS at a final concentration of 10^8 cells/ml for injection. 4×10^6 cells carrying the β2/arrestin β-gal/Ras/FLuc or the SSTR2/arrestin β-gal/Ras/FLuc constructs were subcutaneously into the back of mice (2 injections/mouse), and allowed to grow into small tumors over 7 to 14 days.\nImaging was carried out using a Xenogen-100 device as previously described. Briefly, the system is composed of a light-tight imaging chamber, a digital CCD camera colled by a cryogenic refrigeration unit and a computer system (Living Image™ 2.50 software, Xenogen, Alameda).\nWe engineered new cell lines carrying the SSTR2/arrestin-β-galactosidase construct by retroviral transduction with the Fluc and ras genes (SSTR2/Fluc)."}}, "data": [{"compound": "angiotensin (DRVYIHPF; Angiotensin-2; UniProt P01019 25-32, looked up) [AGTR1 agonist obtained from Sigma]", "values": [{"measurement": "EC50", "setting": "[1]", "result": "in good agreement with radiolabeled ligand binding assays"}, {"measurement": "increase in β-galactosidase activity", "setting": "[1]; 60 minutes agonist", "result": "greater than 15 fold"}]}, {"compound": "CC(C)NCC(O)c1ccc(O)c(O)c1", "note": "(stereo not drawn) [isoproterenol]", "values": [{"measurement": "serum half life", "setting": "[2]", "result": "approx. 2 hours"}]}, {"compound": "CC1(C)C2=C(Cl)C(=O)C(Cl)=CC2=Nc2ccc(O[C@@H]3O[C@H](CO)[C@H](O)[C@H](O)[C@H]3O)cc21", "note": "[DDAOG, 7-hydroxy-9H-(1,3-dichloro-9,9-dimethylacridin-2-one) β-D-galactoside]", "values": [{"measurement": "signal-to-noise ratio, fluorescence imaging, leg muscles", "setting": "[3]", "result": 2.8, "unit": "fold"}]}, {"compound": "D-luciferin-O-β-galactopyranoside [Lugal]", "values": [{"measurement": "Lugal concentration at which strong luminescent signals were generated", "setting": "[4]; FLuc/LacZ C2C12 cells, 384-well dish, concentrations as low as", "result": 10, "unit": "µg/mL"}, {"measurement": "Lugal concentration at which a measurable signal was generated without β-gal", "setting": "[4]; cells expressing FLuc alone, only at the highest concentration", "result": 1000, "unit": "µg/mL"}, {"measurement": "bioluminescence signal of FLuc/LacZ cells relative to FLuc cells", "setting": "[5]; 1×10^6 cells per tibialis anterior, right vs left leg, i.p. Lugal", "result": "30-200 fold"}, {"measurement": "signal-to-noise ratio, luminescence imaging, leg muscles", "setting": "[5]; 1×10^6 cells, right vs left leg", "result": 429, "unit": "fold"}, {"measurement": "signal-to-noise ratio of Lugal relative to DDAOG, deeper tissues (skeletal muscle)", "setting": "[5]; higher with Lugal", "result": 150, "unit": "fold"}]}, {"compound": "C[C@@H](O)[C@@H]1NC(=O)[C@H](CCCCN)NC(=O)[C@@H](Cc2c[nH]c3ccccc23)NC(=O)[C@H](Cc2ccccc2)NC(=O)[C@@H](NC(=O)[C@H](N)Cc2ccccc2)CSSC[C@@H](C(=O)N[C@H](CO)[C@@H](C)O)NC1=O", "note": "[octreotide]", "values": [{"measurement": "time for luminescence to return to baseline", "setting": "[6]", "result": 24, "unit": "h"}, {"measurement": "time for luminescence to return to baseline", "setting": "[6]; listed as Octreotide", "result": "≤ 24", "unit": "h"}, {"measurement": "serum half life", "setting": "[2]", "result": "approx. 6 hours"}]}]}
